Measurements: ChEMBL document CHEMBL1275605, “Rapid assessment of antibacterial activity against Mycobacterium ulcerans by using recombinant luminescent strains” (2010)
Converted amounts (≈) assume the structure as drawn. The source made the active and inactive calls. The rule behind the calls is not given here.

What was measured:
Mycobacterium ulcerans [1] = assay: Antimicrobial activity against Mycobacterium ulcerans 1059 harboring pTY60K containing pMH94 carrying the luxAB gene under the hsp60 promoter after 14 days determined according to CFU count by bioluminescence method; type: functional; conditions: Mycobacterium ulcerans, 1059, 336 h
Mycobacterium ulcerans [2] = assay: Antimicrobial activity against Mycobacterium ulcerans ATCC 19423 harboring pTY60K containing pMH94 carrying the luxAB gene under the hsp60 promoter after 7 days determined according to CFU count by bioluminescence method; type: functional; conditions: ATCC 19423, 168 h
Mycobacterium ulcerans [3] = assay: Antimicrobial activity against Mycobacterium ulcerans 1059 agar dilution method; type: functional
Mycobacterium ulcerans [4] = assay: Antimicrobial activity against Mycobacterium ulcerans 1059 harboring pTY60K carrying the luxAB gene under the hsp60 promoter agar dilution method; type: functional
Mycobacterium ulcerans [5] = assay: Antimicrobial activity against Mycobacterium ulcerans 1059 harboring pTY60K containing pMH94 carrying the luxAB gene under the hsp60 promoter after 14 days determined according to RLU count by real-time luminescence method; type: functional; conditions: Mycobacterium ulcerans, 1059, 336 h
Mycobacterium ulcerans [6] = assay: Antimicrobial activity against Mycobacterium ulcerans ATCC 19423 harboring pTY60K containing pMH94 carrying the luxAB gene under the hsp60 promoter after 7 days determined according to RLU count by real-time luminescence method; type: functional; conditions: ATCC 19423, 168 h
Mycobacterium ulcerans [7] = assay: Antimicrobial activity against Mycobacterium ulcerans ATCC 19423 harboring pTY60H containing pCK0601 carrying the luxAB gene under the hsp60 promoter after 14 days determined according to CFU counts by bioluminescence method; type: functional; conditions: ATCC 19423, 336 h
Mycobacterium ulcerans [8] = assay: Antimicrobial activity against Mycobacterium ulcerans ATCC 19423 harboring pTY60H carrying the luxAB gene under the hsp60 promoter determined after 14 days in presence of 2.5 ug/ml ATP-cassette transporter inhibitor reserpine; type: functional, organism-based
Mycobacterium ulcerans [9] = assay: Antimicrobial activity against Mycobacterium ulcerans ATCC 19423 harboring pTY60H assessed as 4-fold increase in reserpine-mediated inhibition of bacterial growth after 14 days; type: functional, organism-based
Mycobacterium ulcerans [10] = assay: Antimicrobial activity against Mycobacterium ulcerans ATCC 19423 agar dilution method; type: functional
Mycobacterium ulcerans [11] = assay: Antimicrobial activity against Mycobacterium ulcerans ATCC 19423 harboring pTY60H containing pCK0601 carrying the luxAB gene under the hsp60 promoter after 14 days determined according to RLU count by real-time luminescence method; type: functional; conditions: ATCC 19423, 336 h
Mycobacterium ulcerans [12] = assay: Antimicrobial activity against Mycobacterium ulcerans Cu001 agar dilution method; type: functional
Mycobacterium ulcerans [13] = assay: Antimicrobial activity against Mycobacterium ulcerans ATCC 19423 harboring pTY60H carrying the luxAB gene under the hsp60 promoter agar dilution method; type: functional
Mycobacterium ulcerans [14] = assay: Antimicrobial activity against Mycobacterium ulcerans ATCC 19423 harboring pTY60H assessed as 2-fold increase in reserpine-mediated inhibition of bacterial growth after 14 days; type: functional, organism-based

Q: Which MIC (Mycobacterium ulcerans [1]) does the source give for `CC[C@H]1OC(=O)[C@H](C)[C@@H](O[C@H]2C[C@@](C)(OC)[C@@H](O)[C@H](C)O2)[C@H](C)[C@@H](O[C@@H]2O[C@H](C)C[C@H](N(C)C)[C@H]2O)[C@](C)(OC)C[C@@H](C)C(=O)[C@H](C)[C@@H](O)[C@]1(C)O` [CLARITHROMYCIN] here?
A: Its MIC is 0.25 mg/L (≈ 0.334 µM).

Q: What about the MIC (Mycobacterium ulcerans [2]) of the same compound?
A: The MIC was 0.03 mg/L (≈ 0.0401 µM).

Q: And the MIC (Mycobacterium ulcerans [3])?
A: The MIC was 0.25 mg/L (≈ 0.334 µM).

Q: What about the MIC (Mycobacterium ulcerans [4]) of the same compound?
A: The MIC was 0.25 mg/L (≈ 0.334 µM).

Q: What about the MIC (Mycobacterium ulcerans [5]) of the same compound?
A: Its MIC is 0.13 mg/L (≈ 0.174 µM).

Q: What about the MIC (Mycobacterium ulcerans [6]) of the same compound?
A: The MIC was 0.13 mg/L (≈ 0.174 µM).

Q: For `CC[C@H]1OC(=O)[C@H](C)[C@@H](O[C@H]2C[C@@](C)(OC)[C@@H](O)[C@H](C)O2)[C@H](C)[C@@H](O[C@@H]2O[C@H](C)C[C@H](N(C)C)[C@H]2O)[C@](C)(O)C[C@@H](C)C(=O)[C@H](C)[C@@H](O)[C@]1(C)O` [ERYTHROMYCIN], which MIC (Mycobacterium ulcerans [7]) is on record?
A: Its MIC is 1 mg/L (≈ 1.36 µM).

Q: What about the Activity (Mycobacterium ulcerans [8]) of the same compound?
A: Its Activity is “Active”.

Q: What about the Activity (Mycobacterium ulcerans [9]) of the same compound?
A: Its Activity is “Active”.

Q: What about the MIC (Mycobacterium ulcerans [10]) of the same compound?
A: Its MIC is over 16 mg/L.

Q: And the MIC (Mycobacterium ulcerans [11])?
A: Its MIC is 0.5 mg/L (≈ 0.681 µM).

Q: Which MIC (Mycobacterium ulcerans [10]) does the source give for `CN[C@@H]1C[C@H](N)[C@@H](O)[C@H](O[C@H]2O[C@H](CO)[C@H](O)[C@@H]3O[C@@]4(O[C@@H]23)O[C@H]([C@H](N)CO)[C@H](O)[C@H](O)[C@H]4O)[C@H]1O` [HYGROMYCIN] here?
A: The MIC was at most 12.5 mg/L.

Q: And the MIC (Mycobacterium ulcerans [12])?
A: Its MIC is at most 12.5 mg/L.

Q: How did the MIC (Mycobacterium ulcerans [1]) turn out when `NNC(=O)c1ccncc1` [ISONIAZID] was run?
A: The MIC was over 40 mg/L.

Q: What about the MIC (Mycobacterium ulcerans [2]) of the same compound?
A: Its MIC is over 40 mg/L.

Q: And the MIC (Mycobacterium ulcerans [3])?
A: The MIC was over 40 mg/L.

Q: And the MIC (Mycobacterium ulcerans [5])?
A: Its MIC is over 40 mg/L.

Q: What about the MIC (Mycobacterium ulcerans [6]) of the same compound?
A: Its MIC is over 40 mg/L.

Q: How did the MIC (Mycobacterium ulcerans [10]) turn out when `NC[C@H]1O[C@H](O[C@H]2[C@H](O)[C@@H](O[C@H]3O[C@H](CO)[C@@H](O)[C@H](N)[C@H]3O)[C@H](N)C[C@@H]2N)[C@H](O)[C@@H](O)[C@@H]1O` [KANAMYCIN] was run?
A: Its MIC is at most 5 mg/L.

Q: What about the MIC (Mycobacterium ulcerans [12]) of the same compound?
A: The MIC was at most 5 mg/L.

Q: `CC(=O)NC[C@H]1CN(c2ccc(N3CCOCC3)c(F)c2)C(=O)O1` [LINEZOLID] was tested. Which MIC (Mycobacterium ulcerans [1]) did it give?
A: Its MIC is 4 mg/L (≈ 11.9 µM).

Q: What about the MIC (Mycobacterium ulcerans [2]) of the same compound?
A: The MIC was 1 mg/L (≈ 2.96 µM).

Q: What about the MIC (Mycobacterium ulcerans [3]) of the same compound?
A: Its MIC is 1 mg/L (≈ 2.96 µM).

Q: And the MIC (Mycobacterium ulcerans [4])?
A: The MIC was 1 mg/L (≈ 2.96 µM).

Q: And the MIC (Mycobacterium ulcerans [5])?
A: Its MIC is 2 mg/L (≈ 5.93 µM).

Q: And the MIC (Mycobacterium ulcerans [6])?
A: Its MIC is 1 mg/L (≈ 2.96 µM).

Q: Which MIC (Mycobacterium ulcerans [7]) does the source give for `COc1c(N2C[C@@H]3CCCN[C@@H]3C2)c(F)cc2c(=O)c(C(=O)O)cn(C3CC3)c12` [MOXIFLOXACIN] here?
A: The MIC was at most 0.03 mg/L.

Q: What about the MIC (Mycobacterium ulcerans [1]) of the same compound?
A: Its MIC is over 0.25 mg/L.

Q: And the MIC (Mycobacterium ulcerans [2])?
A: The MIC was 0.03 mg/L (≈ 0.0747 µM).

Q: What about the MIC (Mycobacterium ulcerans [10]) of the same compound?
A: The MIC was at most 0.016 mg/L.

Q: What about the MIC (Mycobacterium ulcerans [13]) of the same compound?
A: The MIC was 0.03 mg/L (≈ 0.0747 µM).

Q: And the MIC (Mycobacterium ulcerans [3])?
A: The MIC was over 0.5 mg/L.

Q: What about the MIC (Mycobacterium ulcerans [11]) of the same compound?
A: Its MIC is at most 0.03 mg/L.

Q: What about the MIC (Mycobacterium ulcerans [5]) of the same compound?
A: Its MIC is over 0.25 mg/L.

Q: What about the MIC (Mycobacterium ulcerans [6]) of the same compound?
A: The MIC was 0.03 mg/L (≈ 0.0747 µM).

Q: Which results are given for `CO[C@H]1/C=C/O[C@@]2(C)Oc3c(C)c(O)c4c(O)c(c(/C=N/N5CCN(C)CC5)c(O)c4c3C2=O)NC(=O)/C(C)=C\C=C\[C@H](C)[C@H](O)[C@@H](C)[C@@H](O)[C@@H](C)[C@H](OC(C)=O)[C@@H]1C` [RIFAMPIN]?
A: MIC (Mycobacterium ulcerans [7]): ≤ 0.03 mg/L; MIC (Mycobacterium ulcerans [1]): 0.03 mg/L (≈ 0.0365 µM); MIC (Mycobacterium ulcerans [2]): ≤ 0.016 mg/L; MIC (Mycobacterium ulcerans [10]): 0.5 mg/L (≈ 0.608 µM); MIC (Mycobacterium ulcerans [13]): 0.5 mg/L (≈ 0.608 µM); MIC (Mycobacterium ulcerans [3]): 0.13 mg/L (≈ 0.158 µM); MIC (Mycobacterium ulcerans [4]): 0.5 mg/L (≈ 0.608 µM); MIC (Mycobacterium ulcerans [11]): ≤ 0.03 mg/L; MIC (Mycobacterium ulcerans [5]): 0.06 mg/L (≈ 0.0729 µM); MIC (Mycobacterium ulcerans [6]): 0.03 mg/L (≈ 0.0365 µM)

Q: How did the MIC (Mycobacterium ulcerans [7]) turn out when `CN[C@@H]1[C@H](O[C@H]2[C@H](O[C@H]3[C@H](O)[C@@H](O)[C@H](N=C(N)N)[C@@H](O)[C@@H]3N=C(N)N)O[C@@H](C)[C@]2(O)C=O)O[C@@H](CO)[C@H](O)[C@H]1O` [STREPTOMYCIN] was run?
A: Its MIC is 1 mg/L (≈ 1.72 µM).

Q: And the MIC (Mycobacterium ulcerans [1])?
A: The MIC was 0.13 mg/L (≈ 0.224 µM).

Q: And the MIC (Mycobacterium ulcerans [2])?
A: The MIC was 0.25 mg/L (≈ 0.43 µM).

Q: And the MIC (Mycobacterium ulcerans [10])?
A: Its MIC is 0.25 mg/L (≈ 0.43 µM).

Q: And the MIC (Mycobacterium ulcerans [13])?
A: The MIC was 0.25 mg/L (≈ 0.43 µM).

Q: What about the MIC (Mycobacterium ulcerans [3]) of the same compound?
A: The MIC was 0.25 mg/L (≈ 0.43 µM).

Q: What about the MIC (Mycobacterium ulcerans [4]) of the same compound?
A: Its MIC is 0.25 mg/L (≈ 0.43 µM).

Q: What about the MIC (Mycobacterium ulcerans [11]) of the same compound?
A: Its MIC is 1 mg/L (≈ 1.72 µM).

Q: What about the MIC (Mycobacterium ulcerans [5]) of the same compound?
A: The MIC was 0.13 mg/L (≈ 0.224 µM).

Q: What about the MIC (Mycobacterium ulcerans [6]) of the same compound?
A: The MIC was 0.5 mg/L (≈ 0.86 µM).

Q: With `CN(C)[C@@H]1C(O)=C(C(N)=O)C(=O)[C@@]2(O)C(O)=C3C(=O)c4c(O)cccc4[C@@](C)(O)[C@H]3C[C@@H]12` [TETRACYCLINE] as the compound, how does the MIC (Mycobacterium ulcerans [7]) read?
A: The MIC was 2.5 mg/L (≈ 5.63 µM).

Q: What about the Activity (Mycobacterium ulcerans [8]) of the same compound?
A: Its Activity is “Active”.

Q: What about the Activity (Mycobacterium ulcerans [14]) of the same compound?
A: Its Activity is “Active”.

Q: And the MIC (Mycobacterium ulcerans [10])?
A: Its MIC is 10 mg/L (≈ 22.5 µM).

Q: What about the MIC (Mycobacterium ulcerans [13]) of the same compound?
A: Its MIC is 5 mg/L (≈ 11.3 µM).

Q: And the MIC (Mycobacterium ulcerans [11])?
A: The MIC was 2.5 mg/L (≈ 5.63 µM).
